US20240287121A1, “GALECTIN-3 INHIBITING C-GLYCOSIDE OXIMES” (GLYCOMIMETICS, INC., priority 2021, published 2024)
pIC50: −log10 of the molar value.

Biological target: T1, galectin-3 (Homo sapiens, UniProt P17931)
T1 construct: purchased IBL IBATGPO414
Experiment: Galectin-3 Activity ELISA assay: inhibition of binding of galectin-3 to immobilized Galβ1-3GlcNAc polymer
Details: competitive ELISA; Galβ1-3GlcNAc polymer on streptavidin plate; A450 readout; read-out: Galectin-3 Antagonist Activity IC50
Excerpt: An inhibition assay may be used to screen for antagonists of galectin-3. For example, an assay may be performed to characterize the capability of a compound described herein to inhibit interaction of galectin-3 with a Galβ1-3GlcNAc carbohydrate structure. The inhibition assay may be a competitive binding assay, which allows the determination of IC50 values. By way of example, a Galβ1-3GlcNAc polymer may be immobilized onto a matrix; a composition may be added to reduce nonspecific binding; the immobilized Galβ1-3GlcNAc polymer may be contacted with the candidate compound in the presence of galectin-3 group under conditions and for a time sufficient to permit galectin-3 to bind to the immobilized Galβ1-3GlcNAc polymer; the immobilized Galβ1-3GlcNAc polymer may be washed; and the amount of galectin-3 bound to the immobilized Galβ1-3GlcNAc polymer may be detected. Variations of such steps can be readily and routinely accomplished by a person of ordinary skill in the art.
Galectin-3 antagonists were evaluated for their ability to inhibit binding of galectin-3 to a Galβ1-3GlcNAc carbohydrate structure. The detailed protocol was as follows. A 1 μg/mL suspension of a Galβ1-3GlcNAcβ-3Galβ1-4GlcNAcβ-PAA-biotin polymer (Glycotech, catalog number 01-096) was prepared. A 100 μL aliquot of the polymer was added to the wells of a 96-well streptavidin-coated plate (R&D Systems, catalog number CP004). A 100 μL aliquot of 1× Tris Buffered Saline (TBS, Sigma, catalog number T5912-10×) was added to control wells. The polymer was allowed to bind to the streptavidin-coated wells for 1.5 hours at room temperature. The contents of the wells were discarded and 200 μL of 1×TBS containing 1% bovine serum albumin (BSA) was added to each well as a blocking reagent, and the plate was kept at room temperature for 30 minutes. The wells were washed three times with 1×TBS containing 0.1% BSA. A serial dilution of test compounds was prepared in a separate V-bottom plate (Corning, catalog number 3897). A 75 μL aliquot of the highest concentration of the compound to be tested was added to the first well in a column of the V-bottom plate, then 15 μl were serially transferred into 60 μL 1×TBS through the remaining wells in the column to generate a 1 to 5 serial dilution. A 60 μL aliquot of 2 ug/mL galectin-3 (IBL, catalog number IBATGPO414) was added to each well in the V-bottom plate. A 100 μL aliquot of the galectin-3/test compound mixture was transferred from the V-bottom plate into the assay plate containing the Galβ1-3GlcNAc polymer. Four sets of control wells in the assay plate were prepared in duplicate containing 1) both Galβ1-3GlcNAc polymer and galectin-3, 2) neither the polymer nor galectin-3, 3) galectin-3 only, no polymer, or 4) polymer only, no galectin-3. The plate was gently rocked for 1.5 hours at room temperature. The wells were washed four times with TBS/0.1% BSA. A 100 μL aliquot of anti-galectin-3 antibody conjugated to horse radish peroxidase (R&D Systems, from DGAL30 kit) was added to each well and the plate was kept at room temperature for 1 hour. The wells were washed four times with TBS/0.1% BSA. A 100 μL aliquot of TMB substrate solution was added to each well. The TMB substrate solution was prepared by making a 1:1 mixture of TMB Peroxidase Substrate (KPL, catalog number 5120-0048) and Peroxidase Substrate Solution B (KPL, catalog number 5120-0037). The plate was kept at room temperature for 10 to 20 minutes. The color development was stopped by adding 100 μL 10% phosphoric acid (RICCA Chemical Co., catalog number 5850-16). The absorbance at 450 nm (A450) was measured using a FlexStation 3 plate reader (Molecular Devices). Plots of A450 versus test compound concentration and IC50 determinations were made using GraphPad Prism 6.

T1 sequence (P17931 whole entry): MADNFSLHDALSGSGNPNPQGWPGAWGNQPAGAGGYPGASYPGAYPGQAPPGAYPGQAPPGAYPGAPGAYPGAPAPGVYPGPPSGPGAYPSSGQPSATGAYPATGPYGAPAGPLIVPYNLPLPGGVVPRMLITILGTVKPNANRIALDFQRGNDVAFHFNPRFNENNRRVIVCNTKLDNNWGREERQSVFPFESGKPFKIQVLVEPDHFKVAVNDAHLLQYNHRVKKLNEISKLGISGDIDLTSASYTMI

Question: CCC(=NOC)[C@@H](OCc1ccc(Cl)cc1)[C@@H]1OC(CO)[C@H](O)C(n2cc(-c3cc(F)c(F)c(F)c3)nn2)C1O (stereo partly shown) [Compound 34] was tested. Which pIC50 did it give?
Answer: 6.30

Question: How did the pIC50 turn out when [2H]C([2H])([2H])OC1C(n2cc(-c3cc(F)cc(F)c3)nn2)[C@@H](O)C(CO)O[C@H]1[C@H](OCc1ccc(Cl)cc1)/C(=N/OC)C([2H])([2H])C([2H])([2H])[2H] (stereo partly shown) [Compound 35] was run?
Answer: 5.16

Question: [2H]C([2H])([2H])OC1C(n2cc(-c3cc(F)c(F)c(F)c3)nn2)[C@@H](O)C(CO)O[C@H]1[C@H](OCc1ccc(Cl)cc1)C(C)=NOCC (stereo partly shown) [Compound 36] was tested. Which pIC50 did it give?
Answer: 4.99

Question: How did the pIC50 turn out when [2H]C([2H])([2H])OC1C(n2cc(-c3cc(F)c(F)c(F)c3)nn2)[C@@H](O)C(CO)O[C@H]1[C@H](OCc1ccc(Cl)cc1)C(C)=NOCC1CC1 (stereo partly shown) [Compound 37] was run?
Answer: 4.97

Question: With [2H]C([2H])([2H])OC1C(n2cc(-c3cc(F)c(F)c(F)c3)nn2)[C@@H](O)C(CO)O[C@H]1[C@H](OCc1ccc(Cl)cc1)C(C)=NOCC(C)C (stereo partly shown) [Compound 38] as the compound, how does the pIC50 read?
Answer: 4.78

Question: CCON=C(CC)C(OCc1ccc(Cl)cc1)C1OC(CO)C(O)C(n2cc(-c3cc(F)c(F)c(F)c3)nn2)C1O (stereo not shown) [Compound 40] was tested. Which pIC50 did it give?
Answer: 6.05

Question: How did the pIC50 turn out when CCC(=NOCC1CC1)[C@@H](OCc1ccc(Cl)cc1)[C@@H]1OC(CO)[C@H](O)C(n2cc(-c3cc(F)c(F)c(F)c3)nn2)C1O (stereo partly shown) [Compound 41] was run?
Answer: 5.55
